Experimental data: patent EP4570800A1, “CRYSTAL FORM OF PYRIDINOPYRIMIDINONE COMPOUND, ACID SALT THEREOF, CRYSTAL FORM OF ACID SALT THEREOF, AND USE” (Wuhan Humanwell Innovative Drug Research and Development …, priority 2022, dated 2024)
Where a name gives a salt, the structure may show the parent alone.

Columns and labels:
[1] = test system: Mia Paca-2 pancreatic cancer; experiment: In vivo efficacy test on Mia Paca-2 pancreatic cancer; set-up: species or system mice; details: Mia Paca-2, BID
Description: (§1) After one week of adaptive feeding of mice, Mia Paca-2 cells in a logarithmic phase were resuspended in serum-free DMEM, and then mixed with Matrigel in a ratio of 1: 1. 1 × 10^7 Mia Paca-2 cells were inoculated subcutaneously at the right flank at 100 µL per mouse, and tumor growth was observed regularly. When the tumor grew to an average volume of 150 to 200 mm^3, the mice were randomly divided into a model group and an administration group (single drug, in combination with trametinib) based on the tumor size and body weight. The tumor size and body weight were measured and recorded before and during the administration. After the treatment, the tumor size in the model group was compared with that in the administration group to determine the efficacy.

LOVO colorectal cancer = experiment: In vivo efficacy test on LOVO colorectal cancer; set-up: species or system mice; details: 50 mg/kg, BID
Description: as §1, with “LOVO” for “Mia Paca-2”, “F12K, 5” for “DMEM, and then mixed with Matrigel in a ratio of 1: 1. 1”, “10^6 LOVO” for “10^7 Mia Paca-2”, “group” for “group (single drug, in combination with trametinib)”

[2] = Dynamic solubility in water, SGF, FaSSIF and FeSSIF; details: for S: solubility: 37°C, solid feed concentration 10 mg/mL; for pH: pH value of the filtrate
Description: 100 mg of NaCl and 50 mg of Triton X-100 were weighed into a 50 mL volumetric flask, and purified water was added to complete dissolution. 816 µL of 1 M hydrochloric acid was added thereto, and the pH was adjusted to 1.8 with 1 M hydrochloric acid or 1 M NaOH solution. Purified water was added to make up to volume.
340 mg of anhydrous NaH2PO4, 42 mg of NaOH, and 620 mg of NaCl were weighed into a 100 mL volumetric flask. Purified water was added to complete dissolution. The pH was adjusted to 6.5 with 1 M hydrochloric acid or 1 M NaOH solution. Purified water was added to make up to volume. 110 mg of SIF powder was then weighed into a 50 mL volumetric flask, added with the above solution to complete dissolution and make up to volume.
About 90 mL of purified water was added to complete dissolution, and the pH was adjusted to 5.0 with 1 M hydrochloric acid or 1 M NaOH solution. Purified water was added to make up to volume. 560 mg of SIF powder was then weighed into a 50 mL volumetric flask, added with the above solution to complete dissolution and make up to volume.
Rotating mixing was carried out at 37°C at a solid feed concentration of 10 mg/mL (calculated as the compound of formula I). […] After sampling at each time point, the samples were centrifuged (10000 rpm) and filtered (0.45 µm PTFE filter head), and the HPLC concentration and pH value of the filtrate were measured.

[3] = Solid state stability (XRPD and HPLC); type: physicochemical
Description: The purity test, dynamic solubility test, and stability test in the assay were measured with an Agilent 1260 high-performance liquid chromatograph, and the salt formation molar ratio of ions was tested by ion chromatography, and the analytical conditions are shown in Table 5 and Table 6.
Table 56 Summary of solid state stability evaluation

[4] = XRPD after 25°C/60%RH/open, 1 week
[5] = XRPD after 40°C/75%RH/open, 1 week

| Structure (SMILES) | S: solubility ([2]; FaSSIF, 1 hour, 60 min) | S: solubility ([2]; FaSSIF, 4 hours, 240 min) | S: solubility ([2]; FaSSIF, 24 hours, 1440 min) | S: solubility ([2]; H2O, 1 hour, 60 min) | S: solubility ([2]; H2O, 4 hours, 240 min) | S: solubility ([2]; H2O, 24 hours, 1440 min) | S: solubility ([2]; SGF, 1 hour, 60 min) | S: solubility ([2]; SGF, 4 hours, 240 min) | S: solubility ([2]; SGF, 24 hours, 1440 min) | pH ([2]; FaSSIF, 1 hour) | pH ([2]; FaSSIF, 4 hours) | pH ([2]; FaSSIF, 24 hours) | pH ([2]; FeSSIF, 1 hour) | pH ([2]; FeSSIF, 4 hours) | pH ([2]; FeSSIF, 24 hours) | pH ([2]; H2O, 1 hour) | pH ([2]; H2O, 4 hours) | pH ([2]; H2O, 24 hours) | pH ([2]; SGF, 1 hour) | pH ([2]; SGF, 4 hours) | also measured |
| --- | --- | --- | --- | --- | --- | --- | --- | --- | --- | --- | --- | --- | --- | --- | --- | --- | --- | --- | --- | --- | --- |
| Cc1nc(N[C@H](C)c2cccc(C(F)F)c2F)c2cn(C3(C(F)F)CC3)c(=O)cc2n1 [Control compound 2, reference compound] | – | – | – | – | – | – | – | – | – | – | – | – | – | – | – | – | – | – | – | – | Average tumor weight at the end of the treatment ([1]; 50 mg/kg): 0.46 g; At the end of treatment Average tumor weight (LOVO colorectal cancer): 1.08 g |
| Cc1nc(N[C@H](C)c2cccc(S(F)(F)(F)(F)F)c2)c2cn(C3(CF)CC3)c(=O)cc2n1 [Crystal form A of ethanesulfonate salt] | 620 µg/mL | 1610 µg/mL | 2520 µg/mL | 10060 µg/mL | 9810 µg/mL | 10080 µg/mL | 10420 µg/mL | 10130 µg/mL | 10110 µg/mL | 4.5 | 4.2 | 3.7 | 4.8 | 4.8 | 4.7 | 2.9 | 3.1 | 2.8 | 1.6 | 1.5 | S: solubility ([2]; FeSSIF, 1 hour, 60 min): 2790 µg/mL; S: solubility ([2]; FeSSIF, 4 hours, 240 min): 3620 µg/mL; S: solubility ([2]; FeSSIF, 24 hours, 1440 min): 3700 µg/mL; pH ([2]; SGF, 24 hours): 1.5; HPLC results Purity (area%) ([3]; 25°C/60%RH/open, 1 week): 99.15 area%; HPLC results Purity (area%) ([3]; 40°C/75%RH/open, 1 week): 99.29 area%; HPLC results Purity (area%) ([3]; Onset): 99.10 area%; Crystal form [3, 4]: Crystal form A of ethanesulfonate salt; Crystal form [3, 5]: Crystal form A of ethanesulfonate salt |
| Cc1nc(N[C@H](C)c2cccc(S(F)(F)(F)(F)F)c2)c2cn(C3(CF)CC3)c(=O)cc2n1 [Crystal form A of fumarate salt] | 360 µg/mL | 320 µg/mL | 320 µg/mL | 550 µg/mL | 570 µg/mL | 610 µg/mL | 1960 µg/mL | 1940 µg/mL | 2090 µg/mL | 4.8 | 4.6 | 4.3 | 4.6 | 4.8 | 4.7 | 4.2 | 4.2 | 4.1 | 1.8 | 2.0 | pH ([2]; SGF, 24 hours): 1.7; HPLC results Purity (area%) ([3]; 25°C/60%RH/open, 1 week): 98.67 area%; HPLC results Purity (area%) ([3]; 40°C/75%RH/open, 1 week): 98.70 area%; HPLC results Purity (area%) ([3]; Onset): 98.67 area%; Crystal form [3, 4]: Crystal form A of fumarate salt; Crystal form [3, 5]: Crystal form A of fumarate salt |
| Cc1nc(N[C@H](C)c2cccc(S(F)(F)(F)(F)F)c2)c2cn(C3(CF)CC3)c(=O)cc2n1 [Crystal form A of methanesulfonate salt] | 1440 µg/mL | 1610 µg/mL | 1830 µg/mL | 10250 µg/mL | 10160 µg/mL | 9920 µg/mL | 9760 µg/mL | 9880 µg/mL | 10130 µg/mL | 4.3 | 4.4 | 4.0 | 4.8 | 4.8 | 4.8 | 3.5 | 3.5 | 3.1 | 1.7 | 1.8 | S: solubility ([2]; FeSSIF, 1 hour, 60 min): 4040 µg/mL; S: solubility ([2]; FeSSIF, 4 hours, 240 min): 4160 µg/mL; S: solubility ([2]; FeSSIF, 24 hours, 1440 min): 4240 µg/mL; pH ([2]; SGF, 24 hours): 1.6; HPLC results Purity (area%) ([3]; 25°C/60%RH/open, 1 week): 99.21 area%; HPLC results Purity (area%) ([3]; 40°C/75%RH/open, 1 week): 99.26 area%; HPLC results Purity (area%) ([3]; Onset): 99.18 area%; Crystal form [3, 4]: Crystal form A of methanesulfonate salt; Crystal form [3, 5]: Crystal form A of methanesulfonate salt |
| Cc1nc(N[C@H](C)c2cccc(S(F)(F)(F)(F)F)c2)c2cn(C3(CF)CC3)c(=O)cc2n1 [Crystal form B of citrate salt] | 790 µg/mL | 1180 µg/mL | 1610 µg/mL | 3610 µg/mL | 3600 µg/mL | 3680 µg/mL | 9130 µg/mL | 9400 µg/mL | 9290 µg/mL | 4.5 | 3.9 | 3.6 | 4.8 | 4.6 | 4.5 | 3.5 | 3.5 | 3.3 | 2.5 | 2.6 | S: solubility ([2]; FeSSIF, 1 hour, 60 min): 4090 µg/mL; S: solubility ([2]; FeSSIF, 4 hours, 240 min): 3520 µg/mL; S: solubility ([2]; FeSSIF, 24 hours, 1440 min): 2960 µg/mL; pH ([2]; SGF, 24 hours): 2.4; HPLC results Purity (area%) ([3]; 25°C/60%RH/open, 1 week): 99.00 area%; HPLC results Purity (area%) ([3]; 40°C/75%RH/open, 1 week): 99.01 area%; HPLC results Purity (area%) ([3]; Onset): 98.92 area%; Crystal form [3, 4]: Crystal form A of citrate salt; Crystal form [3, 5]: Crystal form A of citrate salt |
| CC(=O)Nc1cccc(-n2c(=O)n(C3CC3)c(=O)c3c(Nc4ccc(I)cc4F)n(C)c(=O)c(C)c32)c1 [Trametinib] | – | – | – | – | – | – | – | – | – | – | – | – | – | – | – | – | – | – | – | – | Average tumor weight at the end of the treatment ([1]; 0.125 mg/kg): 0.22 g |
